Experiment [1] concerns the target T1, α5β3γ2 GABAA receptors (Homo sapiens, UniProt P18507+P31644).
T1 construct: membranes
T1 sequence (P31644 32-462): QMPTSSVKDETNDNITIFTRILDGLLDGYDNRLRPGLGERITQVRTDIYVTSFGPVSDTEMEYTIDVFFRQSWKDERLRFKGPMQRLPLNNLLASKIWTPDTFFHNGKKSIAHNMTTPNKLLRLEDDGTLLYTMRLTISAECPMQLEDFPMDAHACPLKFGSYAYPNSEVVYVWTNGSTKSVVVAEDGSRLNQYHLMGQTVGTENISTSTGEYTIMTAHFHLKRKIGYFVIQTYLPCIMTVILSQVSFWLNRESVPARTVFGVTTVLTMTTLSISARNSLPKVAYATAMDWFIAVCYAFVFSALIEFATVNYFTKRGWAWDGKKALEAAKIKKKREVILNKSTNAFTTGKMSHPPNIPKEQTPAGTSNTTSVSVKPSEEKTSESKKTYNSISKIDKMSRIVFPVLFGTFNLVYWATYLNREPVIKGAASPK
T1 sequence (P28472 26-473 partner): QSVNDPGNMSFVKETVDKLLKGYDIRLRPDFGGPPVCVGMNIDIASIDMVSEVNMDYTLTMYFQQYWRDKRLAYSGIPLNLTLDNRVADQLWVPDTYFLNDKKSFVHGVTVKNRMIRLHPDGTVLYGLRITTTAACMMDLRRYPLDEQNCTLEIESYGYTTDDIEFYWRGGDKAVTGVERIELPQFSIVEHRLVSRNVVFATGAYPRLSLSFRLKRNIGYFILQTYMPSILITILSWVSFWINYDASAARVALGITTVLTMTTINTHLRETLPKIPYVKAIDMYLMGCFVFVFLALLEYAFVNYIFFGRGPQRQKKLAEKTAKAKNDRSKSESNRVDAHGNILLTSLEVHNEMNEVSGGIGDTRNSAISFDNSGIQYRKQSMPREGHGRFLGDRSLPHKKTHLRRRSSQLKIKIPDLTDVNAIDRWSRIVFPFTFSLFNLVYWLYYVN
T1 sequence (P18507 40-467 limits assumed): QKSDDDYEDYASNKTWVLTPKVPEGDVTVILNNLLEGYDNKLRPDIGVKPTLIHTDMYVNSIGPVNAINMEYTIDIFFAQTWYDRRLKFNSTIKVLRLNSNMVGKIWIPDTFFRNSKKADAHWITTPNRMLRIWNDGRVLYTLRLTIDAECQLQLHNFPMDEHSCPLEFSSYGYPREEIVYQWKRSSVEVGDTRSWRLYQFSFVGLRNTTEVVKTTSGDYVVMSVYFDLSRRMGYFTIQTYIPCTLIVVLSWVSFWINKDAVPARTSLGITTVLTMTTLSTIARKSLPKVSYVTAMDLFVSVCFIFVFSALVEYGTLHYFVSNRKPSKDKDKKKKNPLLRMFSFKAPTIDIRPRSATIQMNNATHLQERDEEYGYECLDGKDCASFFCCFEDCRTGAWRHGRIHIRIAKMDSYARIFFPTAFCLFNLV
As to the kind of experiment: Binding activity of test compounds on GABAAR: inhibition of [3H]Ro15-1788 binding, membranes of Ltk cells. The protocol:
(A) Binding activity of test compounds on GABAAR
Tissue culture and Membrane Preparation: The binding was performed on Ltk cells stably expressing GABAA receptors: α1β1γ2, α2β3γ2, α3β3γ2 and α5β3γ2 (provided by Merck Co., NJ, USA). Cells were seeded in 100 mm culture plates in DMEM/F12 medium containing 10% scrum and antibiotics in 5% CO2 and allowed to grow for 1-2 days. GABAAR expression was then induced by dexamethasone as follows: 0.5 μM for 1 day for α5 containing and 2 μM for 3 days for α1, α2 and α3 containing GABAARs. After induction, cells were collected by scraping into Dulbecco's Phosphate buffered saline (DPBS, pH 7.4, Invitrogen, Carlsbad, CA, USA) and centrifuged at 150×g for 10 min. The pellet was washed twice by re-suspension and centrifugation. The cell pellets from at least 5 different preps were combined, suspended in the binding assay buffer (50 mM KH2PO4; 1 mM EDTA; 0.2 M KCl, pH 7.4) and membranes prepared by sonication (3-5 times, 30 sec) using Branson Sonifier 150 (G. Heinmann, Germany). Protein content was determined using BCA assay (Bio-Rad Labs, Reinach, Switzerland) with Bovine Serum Albumin (Sigma Aldrich, St. Louis, MO, USA) as the standard. Aliquots were prepared and stored at −20° C. for further use in binding assays.
Ligand Binding: Saturation binding curves were obtained by incubating membranes with increasing concentrations (0.01-8 nM) of [^3H]Rol5-1788 (Flumazepil, 75-85 Ci/mmol, PerkinElmer, MA, USA), with nonspecific binding measured in the presence of 10 μM diazepam.
All binding assays were performed for 1 h at 4° C. in assay buffer. The total assay volume was 0.5 ml containing 0.2 mg/ml protein for α5 and 0.4 mg/ml for α1, α2, and α3 containing GABAAR membranes. Incubations were terminated by filtration through GF/B filters using a 24-Cell Harvestor (Brandel, Gaithersburg, MD, USA) followed by 3 washes with ice-cold assay buffer. […] Next day, radioactivity was obtained using a scintillation counter (Beckman Coulter, Brea, CA, USA). […]

The target of experiment [2] is T2, α5β2γ2 subtype GABAAR (Homo sapiens, UniProt P18507+P31644).
T2 construct: expressed in transfected cells
T2 sequence (P31644 32-462): T1 sequence (P31644 32-462)
T2 sequence (P47870 25-512 partner limits assumed): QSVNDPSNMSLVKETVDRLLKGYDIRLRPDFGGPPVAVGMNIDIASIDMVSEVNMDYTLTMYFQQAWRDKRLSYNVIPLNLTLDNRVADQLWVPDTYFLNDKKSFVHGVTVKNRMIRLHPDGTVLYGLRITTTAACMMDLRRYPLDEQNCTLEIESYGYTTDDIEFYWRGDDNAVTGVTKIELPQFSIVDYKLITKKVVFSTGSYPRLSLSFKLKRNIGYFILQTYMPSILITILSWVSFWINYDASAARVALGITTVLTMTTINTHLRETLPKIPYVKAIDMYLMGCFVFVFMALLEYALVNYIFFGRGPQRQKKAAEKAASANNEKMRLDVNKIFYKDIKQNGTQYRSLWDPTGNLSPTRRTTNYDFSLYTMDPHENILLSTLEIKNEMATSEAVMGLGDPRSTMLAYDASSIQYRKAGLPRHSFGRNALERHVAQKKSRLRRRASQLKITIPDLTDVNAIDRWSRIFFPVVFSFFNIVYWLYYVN
T2 sequence (P18507 40-467 limits assumed): T1 sequence (P18507 40-467 limits assumed)
Briefly: Positive allosteric modulator activity: potentiation of EC20 GABA current in oocytes. The class given is cell-based. The following applies: read-out: GABA α5 Functional Data (potentiation), @ 100 nM, reported as ranges. In outline: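 Xenopus oocytes injected with 1 ng α5:β2:γ2 cDNA (1:1:10 by weight) and recorded on day 2 by two-electrode voltage clamp under MBS superfusion. Potentiation (%) = Itest/IGABA at EC20 GABA; each oocyte used for one concentration only.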

Like-named read-outs stand apart in the source and are kept apart here. Some results are limits rather than exact numbers.

A word on the Ki: it is the dissociation constant of the complex between target and ligand, obtained from inhibition or displacement.

Consider `COC1C=C2C(=CC1)n1cnc(-c3noc(C(C)C)n3)c1Cn1c(COc3ccccc3Cl)nnc12` (stereo not shown) [Compound 175], for which, in experiment [1], the Ki was less than 0.1 µM. For the same compound, the activation at 0.1 µM in experiment [2] was in the range of 20 to 50%. In experiment [1], `C#Cc1ccc2c(c1)-n1nnc(COC)c1Cc1c(C3=N[C@@H](C(C)C)CO3)ncn1-2` [Compound 384] gave a Ki of 0.1 to 1 µM.

As for `COCc1nnc2n1Cc1c(-c3ncco3)ncn1-c1cc(Cl)ccc1-2` [Compound 458], the Ki in experiment [1] (reported as ranges) was more than 1 µM.

The values are drawn from patent US12528819B2 (priority 2016, dated 2026).
